From patent US20250042881A1, “CCR6 RECEPTOR MODULATORS” (Idorsia Pharmaceuticals Ltd, priority 2021, published 2025)

biological target: T1, human CCR6 (Homo sapiens, UniProt P51684); assay: FLIPR assay: inhibition of CCL20-induced calcium signal in HEK-293 cells expressing human CCR6; assay type: cell-based; details: engineered HEK-293 cells expressing human CCR6; agonist CCL20 10 nM; 30 min preincubation; Fluo-8-AM; mean values if determined several times
T1 construct: expressed in transfected cells; host or cells: HEK-293
T1 sequence (P51684 1-374): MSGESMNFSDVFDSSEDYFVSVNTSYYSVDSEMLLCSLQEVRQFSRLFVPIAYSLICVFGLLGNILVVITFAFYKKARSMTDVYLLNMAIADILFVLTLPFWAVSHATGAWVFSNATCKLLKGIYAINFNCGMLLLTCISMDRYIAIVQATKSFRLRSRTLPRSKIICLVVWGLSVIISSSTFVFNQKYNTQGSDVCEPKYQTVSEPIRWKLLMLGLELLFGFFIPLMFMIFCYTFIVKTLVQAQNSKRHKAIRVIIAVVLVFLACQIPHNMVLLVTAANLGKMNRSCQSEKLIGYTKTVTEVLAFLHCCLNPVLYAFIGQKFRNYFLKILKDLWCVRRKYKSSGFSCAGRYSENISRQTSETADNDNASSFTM
Protocol: FLIPR assay: The bioactivity of compounds is tested in a fluorometric imaging plate reader (FLIPR: Molecular Devices) using engineered HEK-293 cells expressing the human CCR6 (GenBank: AY242126). Frozen cells are plated on Poly-L-Lysine precoated 384-well plates 2 days prior to bioassay in DMEM medium supplemented with 10% FCS and 1% Penicillin-Streptomycin. At the day of bioassay, cell supernatant is discarded and cells are dye loaded for 30 minutes at room temperature in the dark with Fluo-8-AM (Focus Biomolecules) in Hanks Balanced Salt Solution (Gibco), buffered with 20 mM Hepes at pH 6.75 and supplemented with 0.05% BSA. This buffer, but lacking the dye, is also used for washing and compound dilution steps (assay buffer). Cells are washed free of excess dye with a wash-station (Biotek), leaving 40 microliter of assay buffer at the end. Cells were incubated for 15 minutes at room temperature in the dark, before adding compounds. Stock solutions of test compounds are made up at a concentration of 10 mM in DMSO, and serially diluted first in DMSO and then transferred in assay buffer to concentrations required for inhibition dose response curves. After a 45 minute incubation period in assay buffer at room temperature, 10 microliters of each compound dilution are transferred from a compound plate to the plate containing the recombinant cells in the FLIPR instrument according to the manufacturer's instructions. After cells and compounds were preincubated for 30 minutes at room temperature in the dark, 10 microliter agonist CCL20 (Peprotech) at a final concentration of 10 nM is added, again using the FLIPR instrument. Changes in fluorescence are monitored before and after addition of the test compounds and agonist. Emission peak values above base level after CCL20 addition are exported after base line subtraction. The calculated IC50 values may fluctuate depending on the daily assay performance. Fluctuations of this kind are known to those skilled in the art. In the case where IC50 values have been determined several times for the same compound, mean values are given.

Q: For `CC(=O)N[C@H]1CC[C@H](c2nc(-c3cncc([C@@](O)(c4ccc(C(C)C)cc4)C4(C)CN(C)C4)c3)nn2C(C)C)CC1` [Example 43, N-[4-(5-{5-[(R)-(1,3-Dimethyl-azetidin-3-yl)-hydroxy-(4-isopropyl-phenyl)-methyl]-pyridin-3-yl}-2-isopropyl-2H-[1,2,4]triazol-3-yl)-trans-cyclohexyl]-acetamide], which IC50 is on record?
A: The IC50 was 115 nM.

Q: How did the IC50 turn out when `CC(C)c1ccc([C@](O)(c2cncc(-c3nc(C4CCN(C(=O)CO)CC4)n(C(C)C)n3)c2)C2(C)CN(C)C2)cc1` [Example 44, 1-[4-(5-{5-[(R)-(1,3-Dimethyl-azetidin-3-yl)-hydroxy-(4-isopropyl-phenyl)-methyl]-pyridin-3-yl}-2-isopropyl-2H-[1,2,4]triazol-3-yl)-piperidin-1-yl]-2-hydroxy-ethanone] was run?
A: The IC50 was 199 nM.

Q: With `CC(C)c1ccc([C@](O)(c2cncc(-c3nc(C4(C)CCNC(=O)C4)n(C(C)C)n3)c2)C2(C)CN(C)C2)cc1` (stereo partly drawn) [Example 45, 4-(5-{5-[(R)-(1,3-Dimethyl-azetidin-3-yl)-hydroxy-(4-isopropyl-phenyl)-methyl]-pyridin-3-yl}-2-isopropyl-2H-[1,2,4]triazol-3-yl)-4-methyl-piperidin-2-one] as the compound, how does the IC50 read?
A: Its IC50 is 193 nM.

Q: Which IC50 does the source give for `CC(C)c1ccc([C@](O)(c2cncc(-c3nc(C4CCNC(=O)C4)n(C(C)C)n3)c2)C2(C)CN(C)C2)cc1` (stereo partly drawn) [Example 46, 4-(5-{5-[(R)-(1,3-Dimethyl-azetidin-3-yl)-hydroxy-(4-isopropyl-phenyl)-methyl]-pyridin-3-yl}-2-isopropyl-2H-[1,2,4]triazol-3-yl)-piperidin-2-one] here?
A: The IC50 was 161 nM.

Q: How did the IC50 turn out when `CC(=O)N1CCC(O)(c2nc(-c3cncc([C@@](O)(c4ccc(C(C)C)cc4)C4(C)CN(C)C4)c3)nn2C(C)C)CC1` [Example 47, 1-[4-(5-{5-[(R)-(1,3-Dimethyl-azetidin-3-yl)-hydroxy-(4-isopropyl-phenyl)-methyl]-pyridin-3-yl}-2-isopropyl-2H-[1,2,4]triazol-3-yl)-4-hydroxy-piperidin-1-yl]-ethanone] was run?
A: Its IC50 is 206 nM.

Q: With `COCCn1nc(-c2cncc([C@@](O)(c3ccc(C(C)C)cc3)C3(C)CN(C)C3)c2)nc1C1CCOCC1` [Example 48, (R)-(1,3-Dimethyl-azetidin-3-yl)-(4-isopropyl-phenyl)-{5-[1-(2-methoxy-ethyl)-5-(tetrahydro-pyran-4-yl)-1H-[1,2,4]triazol-3-yl]-pyridin-3-yl}-methanol] as the compound, how does the IC50 read?
A: The IC50 was 170 nM.

Q: `CC(C)c1ccc([C@](O)(c2cncc(-c3nc(C4CCOCC4)n(C4CC4)n3)c2)C2(C)CN(C3CC3)C2)cc1` [Example 49, (R)-(1-Cyclopropyl-3-methyl-azetidin-3-yl)-{5-[1-cyclopropyl-5-(tetrahydro-pyran-4-yl)-1H-[1,2,4]triazol-3-yl]-pyridin-3-yl}-(4-isopropyl-phenyl)-methanol] was tested. Which IC50 did it give?
A: The IC50 was 55.8 nM.

Q: For `CC(=O)NCCn1nc(-c2cncc([C@@](O)(c3ccc(C(C)C)cc3)C3(C)CN(C)C3)c2)nc1C1CCOCC1` [Example 50, N-{2-[3-{5-[(R)-(1,3-Dimethyl-azetidin-3-yl)-hydroxy-(4-isopropyl-phenyl)-methyl]-pyridin-3-yl}-5-(tetrahydro-pyran-4-yl)-[1,2,4]triazol-1-yl]-ethyl}-acetamide], which IC50 is on record?
A: Its IC50 is 481 nM.

Q: `CC(C)c1ccc([C@](O)(c2cnnc(-c3nc(C4CCOCC4)n(C(C)C)n3)c2)C2(C)CN(C)C2)cc1` [Example 51, (R)-(1,3-Dimethyl-azetidin-3-yl)-(4-isopropyl-phenyl)-{6-[1-isopropyl-5-(tetrahydro-pyran-4-yl)-1H-[1,2,4]triazol-3-yl]-pyridazin-4-yl}-methanol] was tested. Which IC50 did it give?
A: The IC50 was 578 nM.
